Our source for the Ki and Kd values is patent US6518301B1, “Estrogen receptor-β ligands” (AstraZeneca AB, priority 1999, dated 2003).

SMILES strings stand for the structures. pKd, pKi: −log10 of the molar value. Like-named read-outs stand apart in the source and are kept apart here.

In experiment [1] the target is T1, ER-β (Gen Bank Accession #X99101) (Homo sapiens, UniProt Q92731).
T1 construct: made in house; host or cells: in vitro transcription/translation, TNT T7 Quick-Coupled reticulocyte lysate (Promega Cat.#L1170)
T1 sequence (Q92731 54-530 limits assumed): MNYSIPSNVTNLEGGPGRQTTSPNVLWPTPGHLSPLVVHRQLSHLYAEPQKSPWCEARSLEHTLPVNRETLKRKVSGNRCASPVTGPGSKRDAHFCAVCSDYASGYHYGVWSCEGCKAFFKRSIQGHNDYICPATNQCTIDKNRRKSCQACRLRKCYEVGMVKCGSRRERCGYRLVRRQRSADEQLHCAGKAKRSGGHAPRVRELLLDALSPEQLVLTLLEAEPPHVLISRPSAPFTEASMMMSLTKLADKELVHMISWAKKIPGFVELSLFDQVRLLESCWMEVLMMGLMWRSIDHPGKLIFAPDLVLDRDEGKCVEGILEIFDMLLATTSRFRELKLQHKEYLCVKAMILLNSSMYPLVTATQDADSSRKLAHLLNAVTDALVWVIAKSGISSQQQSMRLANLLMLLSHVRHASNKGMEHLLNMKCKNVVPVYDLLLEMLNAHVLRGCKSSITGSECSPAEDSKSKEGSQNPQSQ
Nature of the experiment: Estrogen receptor binding, competition with [125I]-estradiol, ER-β. As for the experimental part:
(§1) The ability of a compound to bind to ER was measured by its ability to compete for binding with the radio-labeled estrogen.
(§2) Receptor protein was prepared by in vitro transcription and translation of these plasmids using the TNT T7 Quick-Coupled reticulocyte lysate system (Promega Cat.#L1170). […] Programmed lysate was then aliquotted and stored frozen at −80° C.
(§3) Compounds were prepared as 1 mM stocks in DMSO, then diluted in the binding-assay buffer (in mM: 20 HEPES, 150 NaCl, 1 EDTA, 6 monothioglycerol and 10 Na2MoO4; 10% wt/vol glycerol, and pH =7.9) to a series of three-fold concentrated, 20 μL aliquots in a 96-well plate. Receptor aliquots were thawed on ice, and appropriately diluted (see below) in binding assay buffer. Diluted receptor (30 μL/each) was added to each well. […] Plates containing the final assay mixture were mixed on a shaker for 2 min and incubated overnight (˜16 h) at 4° C.
(§4) Receptor-bound and unbound radioligand was separated by filtration over sephadex columns. Columns (45 μL bed volume) were prepared by adding dry column media (Pharmacia Cat#G-25) to 96-well column templates (Millipore MultiScreen Plates Cat#MAHVN4510). Columns were then saturated with 300 μL of binding-assay buffer and stored at 4° C. Prior to use, stored columns were spun for 10 minutes at 2000 RPM, then washed twice with 200 μL of fresh binding buffer. The binding-assay mixtures (50 μL/each) were then applied to the columns, and an additional elution volume of 35 μL was immediately applied to the column. Receptor-bound radioligand was then cluted from the column by centrifugation for 10 minutes at 2000 RPM. A scintillation cocktail (145 μL) was added to the eluted radioligand/receptor complex, and radio-label was measured by liquid scintillation counting.

For experiment [2], the target named is T2, ER-α (Gen Bank Accession #M12674) (Homo sapiens, UniProt P03372).
T2 construct: made in house; host or cells: in vitro transcription/translation, TNT T7 Quick-Coupled reticulocyte lysate (Promega Cat.#L1170)
T2 sequence (P03372 1-595): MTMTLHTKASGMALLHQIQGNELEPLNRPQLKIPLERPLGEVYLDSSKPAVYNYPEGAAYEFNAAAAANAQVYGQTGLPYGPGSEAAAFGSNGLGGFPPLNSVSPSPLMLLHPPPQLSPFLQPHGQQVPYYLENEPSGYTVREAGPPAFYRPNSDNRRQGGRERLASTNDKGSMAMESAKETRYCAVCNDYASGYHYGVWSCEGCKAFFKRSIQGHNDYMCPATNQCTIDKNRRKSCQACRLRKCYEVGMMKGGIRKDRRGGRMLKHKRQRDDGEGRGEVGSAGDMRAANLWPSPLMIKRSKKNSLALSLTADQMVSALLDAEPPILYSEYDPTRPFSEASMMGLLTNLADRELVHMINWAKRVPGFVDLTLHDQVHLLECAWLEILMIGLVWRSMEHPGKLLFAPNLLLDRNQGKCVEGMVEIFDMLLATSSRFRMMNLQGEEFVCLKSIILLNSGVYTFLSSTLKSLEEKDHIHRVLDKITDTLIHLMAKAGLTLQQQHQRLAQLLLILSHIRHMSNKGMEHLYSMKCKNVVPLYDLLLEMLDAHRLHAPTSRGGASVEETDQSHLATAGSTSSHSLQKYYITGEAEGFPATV
Put plainly: Estrogen receptor binding, competition with [125I]-estradiol, ER-α. As for the experimental part: as §1, §2, §3, §4

Experiment [3] has as its target ER. Nature of the experiment: Scatchard analysis of ligand binding affinity on receptor preparation. Conditions: Scatchard analysis at receptor dilutions giving reported Kis and signal:noise ~10; subtype not specified; read-out: KD for [125I]-estradiol. As for the experimental part: The volume of receptor-programmed reticulocyte lysate to be added to the binding assay was determined independently from two measurements made on each batch of receptor prepared. First, Kis were determined for standard compounds using a series of dilutions of the receptor preparation. Scatchard analysis of ligand binding affinity was performed at the receptor dilutions that produced reported Kis for these compounds and an acceptable signal:noise ratio (˜10).

[4] abbreviates: competition with 150 pM [125I]-estradiol, receptor-programmed reticulocyte lysate, overnight at 4° C., Cheng-Prushoff from IC50, read-out: ER-β Ki.
Where [5] appears, read: competition with 150 pM [125I]-estradiol, receptor-programmed reticulocyte lysate, overnight at 4° C., Cheng-Prushoff from IC50, read-out: ER-α Ki.

For the molecule `O=c1oc2ccc(O)cc2cc1-c1ccc(O)cc1` [compound 41], in experiment [1] (setting [4]), the pKi was 8.34.

For the molecule `Cc1c(-c2ccc(Cl)cc2)c(=O)oc2cc(O)ccc12` [compound 42], the values for the pKi in experiment [1] (setting [4]) and in experiment [2] (setting [5]) were 7.29 and below 5.52, respectively.

Regarding `O=c1c(-c2ccccc2F)coc2cc(O)cc(O)c12` [compound 33], the pKi in experiment [1] (setting [4]) is 7.30; in experiment [2] (setting [5]), below 5.52.

On to `Cc1cc(O)cc2occ(-c3ccc(O)cc3)c(=O)c12` [compound 23], for which the results for the pKi in experiment [1] (setting [4]) and in experiment [2] (setting [5]) were 9.30 and 6.70, respectively.

With `O=C1c2c(O)cc(O)cc2CCC1c1ccc(O)cc1` (stereo not drawn) [compound 27], in experiment [1] (setting [4]), the negative-log Ki (pKi) is 8.24.

On to `Cc1c(-c2ccc(O)cc2)c(=O)oc2c(C)c(O)ccc12` [compound 43], for which the negative-log Ki (pKi) was 7.62 in experiment [1] (setting [4]) and 6.30 in experiment [2] (setting [5]).

For the molecule `Nc1ccc(-c2coc3cc(O)cc(O)c3c2=O)cc1` [compound 13], the pKi in experiment [1] (setting [4]) was 8.22; in experiment [2] (setting [5]), below 5.52.

On to `COc1cc(O)c2c(=O)c(-c3ccc(O)cc3)coc2c1` [compound 22], for which the figures for the pKi in experiment [1] and in experiment [2] were 7.30 and below 5.52, respectively.

In the case of `O=c1c(-c2ccc(O)c(Br)c2)coc2cc(O)cc(O)c12` [compound 6, (3-Bromo-4-hydroxyphenyl)-5,7-dihydroxy-4H-1-benzopyran-4-one], the figures for the pKi in experiment [1] (setting [4]) and in experiment [2] (setting [5]) were 8.90 and 6.36, respectively.

As to `O=c1c(-c2ccc(O)c(O)c2)coc2cc(O)cc(O)c12` [compound 1], the pKi was 8.67 in experiment [1] (setting [4]) and 6.22 in experiment [2] (setting [5]).

For the molecule `C=CCc1cc(-c2coc3cc(O)cc(O)c3c2=O)ccc1O` [compound 7], the negative logarithm of the Ki (pKi) in experiment [1] (setting [4]) is 8.49; in experiment [2] (setting [5]) it was below 5.52.

In the case of `O=c1c(-c2cccc(O)c2)coc2cc(O)cc(O)c12` [compound 15], the values for the pKi in experiment [1] (setting [4]) and in experiment [2] (setting [5]) were 7.82 and 6.05, respectively.

Consider `O=c1c(-c2ccc3c(c2)OCO3)coc2cc(O)cc(O)c12` [compound 12], for which the values for the pKi in experiment [1] (setting [4]) and in experiment [2] (setting [5]) were 7.66 and below 5.52, respectively.

Consider `O=c1c(-c2ccc3ccccc3n2)coc2cc(O)cc(O)c12` [compound 19], for which the negative-log Ki (pKi) in experiment [1] (setting [4]) was 6.91; in experiment [2] (setting [5]), below 5.52.

Consider `O=c1c(-c2cccs2)coc2cc(O)cc(O)c12` [compound 17], for which the values for the pKi in experiment [1] (setting [4]) and in experiment [2] (setting [5]) were 8.48 and below 5.52, respectively.

In the case of `O=c1c(-c2ccsc2)coc2cc(O)cc(O)c12` [compound 18], the results for the pKi in experiment [1] (setting [4]) and in experiment [2] (setting [5]) were 7.77 and below 5.52, respectively.

Turning to `O=c1oc2cc(O)cc(O)c2cc1-c1ccc(O)cc1` [compound 39], the negative logarithm of the Ki (pKi) was 7.10 in experiment [1] (setting [4]) and below 5.52 in experiment [2] (setting [5]).

Turning to `O=c1c(-c2ccc(O)c(F)c2)coc2cc(O)ccc12` [compound 24], the pKi was 8.48 in experiment [1] (setting [4]) and below 5.52 in experiment [2] (setting [5]).

On to `O=c1oc2cc(O)ccc2cc1-c1ccc(O)cc1` [compound 38], for which the pKi is 8.31 in experiment [1] (setting [4]) and 6.66 in experiment [2] (setting [5]).

Consider `O=c1c(-c2ccc(Br)cc2)coc2cc(O)cc(O)c12` [compound 20], for which the figures for the pKi in experiment [1] (setting [4]) and in experiment [2] (setting [5]) were 7.60 and below 5.52, respectively.

Regarding `O=c1c(-c2ccc(O)cc2Cl)coc2cc(O)cc(O)c12` [Compound No. 2], the negative logarithm of the Ki (pKi) in experiment [1] (setting [4]) is 9.26; in experiment [2] (setting [5]), 7.25.

Consider `COc1cc(-c2coc3cc(O)cc(O)c3c2=O)ccc1O` [compound 9], for which the figures for the pKi in experiment [1] (setting [4]) and in experiment [2] (setting [5]) were 6.84 and below 5.52, respectively.

For `Cc1c(-c2ccc(O)cc2)c(=O)oc2cc(O)ccc12` [Compound No. 28, 3-(4-hydroxyphenyl)-7-hydroxy-4-methylcoumarin], the pKi is 7.92 in experiment [1] (setting [4]) and 6.49 in experiment [2] (setting [5]).

In the case of `O=c1c(-c2ccccc2O)coc2cc(O)cc(O)c12` [compound 16], the pKi was 6.96 in experiment [1] (setting [4]) and below 5.52 in experiment [2] (setting [5]).

As for `CCCc1cc(-c2coc3cc(O)cc(O)c3c2=O)ccc1O` [compound 8], the pKi in experiment [1] (setting [4]) is 9.12; in experiment [2] (setting [5]) it was below 5.52.

On to `O=C1CC(c2ccc(O)cc2)Cc2ccc(O)cc21` (stereo not drawn) [compound 37], for which the results for the pKi in experiment [1] (setting [4]) and in experiment [2] (setting [5]) were 9.14 and 7.12, respectively.

Regarding `O=c1c(-c2ccc(O)c(F)c2)coc2cc(O)cc(O)c12` [compound 4], the pKi in experiment [1] (setting [4]) is 9.30; in experiment [2] (setting [5]), 7.13.

`O=c1c(-c2ccccc2)c(-c2ccccc2)oc2cc(O)ccc12` [compound 35]: the negative logarithm of the Ki (pKi) was 7.72 in experiment [1] (setting [4]) and 7.30 in experiment [2] (setting [5]).

For the molecule `CC12CCC3c4ccc(O)cc4CCC3C1CC([125I])C2O` (stereo not drawn) [[^125I]-estradiol, [^125I]-16α-iodo-3,17β-estradiol], the pKd in experiment [3] was 9.00 to 10.00.

Take `O=c1c(-c2ccccc2)c(-c2ccccc2)oc2cc(O)cc(O)c12` [compound 34]: the pKi in experiment [1] (setting [4]) is 8.02; in experiment [2] (setting [5]), 7.02.

`O=c1c(-c2ccc(Cl)cc2)coc2cc(O)cc(O)c12` [compound 21]: the pKi in experiment [1] (setting [4]) was 7.38; in experiment [2] (setting [5]) it was below 5.52.

Take `Cc1cc(O)ccc1-c1coc2cc(O)cc(O)c2c1=O` [compound 3]: the pKi in experiment [1] (setting [4]) was 8.92; in experiment [2] (setting [5]) it was 7.21.

`O=c1c(-c2ccc(O)c(Cl)c2)coc2cc(O)cc(O)c12` [compound 5]: the pKi was 8.92 in experiment [1] (setting [4]) and 5.96 in experiment [2] (setting [5]).

As for `CCc1c(-c2ccc(O)cc2)c(=O)oc2cc(O)ccc12` [compound 29], the pKi was 8.40 in experiment [1] (setting [4]) and 7.10 in experiment [2] (setting [5]).

In the case of `O=c1c(-c2ccc(O)cc2)c(C(F)(F)F)oc2cc(O)ccc12` [compound 25], the pKi in experiment [1] (setting [4]) is 8.00; in experiment [2] (setting [5]), 6.49.

As for `O=c1c(-c2ccc(F)cc2)coc2cc(O)cc(O)c12` [compound 11], the negative logarithm of the Ki (pKi) is 7.00 in experiment [1] (setting [4]) and below 5.52 in experiment [2] (setting [5]).

With `O=c1c(-c2ccc3ccccc3c2)coc2cc(O)cc(O)c12` [compound 14], the figures for the pKi in experiment [1] (setting [4]) and in experiment [2] (setting [5]) were 6.82 and below 5.52, respectively.

For `Oc1ccc(C2COc3cc(O)ccc3C2)cc1` (stereo not drawn) [compound 46], the figures for the pKi in experiment [1] (setting [4]) and in experiment [2] (setting [5]) were 8.70 and 6.81, respectively.

Consider `O=c1cc(-c2ccc(O)cc2)oc2ccc(O)cc12` [compound 36], for which the pKi in experiment [1] (setting [4]) was 9.48; in experiment [2] (setting [5]), 7.06.

On to `COc1c(O)cc(O)c2c(=O)c(-c3ccc(O)cc3)coc12` [compound 32], for which the pKi in experiment [1] (setting [4]) was 7.48; in experiment [2] (setting [5]) it was below 5.52.

Regarding `O=C1c2c(O)cc(O)cc2OCC1c1ccc(O)cc1` (stereo not drawn) [compound 26], the pKi in experiment [1] (setting [4]) was 8.43; in experiment [2] (setting [5]), 6.00.

Consider `Cc1cc(-c2coc3cc(O)cc(O)c3c2=O)cc(C)c1O` [compound 10], for which the pKi was 7.60 in experiment [1] (setting [4]) and below 5.52 in experiment [2] (setting [5]).
